# Laboratory results published in PubChem BioAssay AID1253 (Columbia University Molecular Screening Center, 2008).
# Calls of active or inactive are those of the source.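 How the source made its calls: active means IC50 under 10 µM in the follow-up dose response; inactive means IC50 10 µM or more, or under 40% single-dose inhibition.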
# Molecular target: Tyrosine-protein phosphatase non-receptor type 22 (Homo sapiens) (UniProt Q9Y2R2)
# Experiment: PTPN22 enzyme inhibition – biochemical, DiFMUP fluorescence, retest and dose response, confirmation (AID 1253)
# Settings: recombinant LYP
# Tyrosine-protein phosphatase non-receptor type 22 (Homo sapiens), sequence (Q9Y2R2 whole entry, looked up): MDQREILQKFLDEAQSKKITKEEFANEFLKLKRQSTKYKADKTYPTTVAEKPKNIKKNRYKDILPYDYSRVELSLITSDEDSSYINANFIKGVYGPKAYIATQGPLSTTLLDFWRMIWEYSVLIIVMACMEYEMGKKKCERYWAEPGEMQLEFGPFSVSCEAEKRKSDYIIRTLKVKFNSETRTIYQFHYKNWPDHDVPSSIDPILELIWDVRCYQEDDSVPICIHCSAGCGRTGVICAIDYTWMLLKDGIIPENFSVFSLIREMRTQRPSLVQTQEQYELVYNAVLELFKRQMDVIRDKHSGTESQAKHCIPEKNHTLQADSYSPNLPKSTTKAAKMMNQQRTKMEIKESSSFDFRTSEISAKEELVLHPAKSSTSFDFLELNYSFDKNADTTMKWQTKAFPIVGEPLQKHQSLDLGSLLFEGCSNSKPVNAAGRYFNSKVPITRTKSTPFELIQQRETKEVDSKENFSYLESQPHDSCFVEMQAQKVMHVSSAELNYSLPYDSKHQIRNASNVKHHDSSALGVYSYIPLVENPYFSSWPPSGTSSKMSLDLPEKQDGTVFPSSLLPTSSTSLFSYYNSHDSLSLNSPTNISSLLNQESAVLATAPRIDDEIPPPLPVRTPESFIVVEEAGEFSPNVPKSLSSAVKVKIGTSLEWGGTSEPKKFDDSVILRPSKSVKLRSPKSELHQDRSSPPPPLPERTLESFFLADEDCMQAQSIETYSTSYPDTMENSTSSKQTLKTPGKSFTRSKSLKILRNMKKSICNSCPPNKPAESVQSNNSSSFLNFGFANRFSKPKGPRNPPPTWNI
row,SMILES,IC50
1,O=C(c1cccs1)c1no[n+]([O-])c1C(=O)c1cccs1,1660 nM
2,COc1cccc(OC)c1-c1nn2c(-c3cc(-c4ccccc4)n[nH]3)nnc2s1,4710 nM
3,Cc1cc(-c2c(C)[nH]n(-c3ccc(Cl)cc3)c2=O)n[nH]1,> 10000 nM (inactive)
4,Nc1c(C(=O)Nc2nc3ccccc3s2)sc2nc(-c3cccs3)ccc12,1240 nM
5,CC(C)C(C(=O)O)N1C(=O)/C(=C/C=C/c2ccco2)SC1=S (centres undefined),2940 nM
6,O=C(O)CCCN1C(=O)/C(=C/c2ccc(-c3nc4ccccc4s3)o2)SC1=S,1130 nM
7,COc1cc(-c2nnc(SCc3cc(=O)oc4cc(O)c(O)cc34)o2)cc(OC)c1OC,2600 nM
8,CC(C(=O)O)N1C(=O)/C(=C/C=C/c2ccco2)SC1=S (centres undefined),3700 nM
9,Cc1c2cc(O)c(=O)cc-2oc2cc(O)c(O)cc12,480 nM

# Same assay, conditions: recombinant LYP, at 10 µM, hits give high values
row,SMILES,inhibition
1,COc1ccc(NC(=O)C2CCCO2)cc1Cl (centres undefined),inactive
2,Cc1ccc(Cn2c(=N)c(C(=O)NCc3ccco3)cc3c(=O)n4ccccc4nc32)cc1,inactive
3,CC1CCc2c(C(=O)Nc3nccs3)csc2C1 (centres undefined),inactive
4,Cc1ccc(-c2nc3ccccc3[nH]2)cc1NC(=O)c1sc2ccccc2c1Cl,inactive
5,COCc1cc(C)nc(Nc2ccccc2C)c1C#N,inactive
6,O=C(OCC1OC(n2cnc3c(N(C(=O)c4ccccc4)C(=O)c4ccccc4)ncnc32)C(O)C1F)c1ccccc1 (centres undefined),inactive
7,Cc1ccc(-c2nnc(CSc3nnc(COc4cccc5ccccc45)n3-c3ccccc3)o2)cc1,inactive
8,CC(C)C(CCNC(=O)CC(Cc1ccccc1)c1ccco1)c1ccco1 (centres undefined),inactive
9,Nc1nnnn1/N=C/c1ccccc1C(F)(F)F,inactive
10,Cc1cc(-c2csc(N)n2)c(C)n1CCC(C)C,inactive
11,O=C(CSc1nnc(-c2cccs2)n1-c1cccc(Cl)c1)c1cccc2c1OCCO2,inactive
12,N#Cc1ccccc1CN1C(=O)S/C(=C/c2cccn2-c2cccc(C(=O)O)c2)C1=O,inactive
13,Cc1ccc(NC(=O)CN2C(=O)S/C(=C/c3ccc(-c4cc(C(=O)O)ccc4C)o3)C2=O)cc1C,inactive
14,CCOc1ccccc1NC(=O)CN(c1ccc(C)cc1)S(=O)(=O)c1c(C)noc1C,inactive
15,Cc1ccccc1Cn1ccc(NC(=O)CCSc2nc(-c3ccco3)cc(C(F)(F)F)n2)n1,inactive
16,CCN(CC(=O)NC(=O)NC1CCCCC1)Cc1nc2ccccc2c(=O)[nH]1,inactive
17,CCCCCCCCC/C(=N\O)c1ccccn1,inactive
18,C=CCNC(=S)NNC(=O)c1cccn(Cc2ccc(Cl)cc2Cl)c1=O,inactive
19,O=C(N/N=C/c1ccncc1)c1cc([N+](=O)[O-])cc([N+](=O)[O-])c1O,inactive
20,COc1ccc(C2C(C#N)=C(N)N(c3sc4c(c3C#N)CCCC4)C3=C2C(=O)CC(C)(C)C3)cc1OC (centres undefined),inactive
21,O=C(Cn1cnc2ccccc21)Nc1ccc(C(=O)O)cc1,inactive
22,O=C(Nc1nc(-c2ccccn2)cs1)c1ncc(Cl)c(Cl)c1Cl,inactive
23,COc1cnc(-c2ccccn2)nc1Sc1ccc(Cl)cc1,inactive

row,SMILES,inhibition
1,Cc1ccc(CSC2=Nc3ccccc3C3=NC(CC(=O)NCc4ccco4)C(=O)N23)cc1 (centres undefined),inactive
2,CCNC(=S)NNC(=O)c1cccn(Cc2ccc(Cl)cc2Cl)c1=O,inactive
3,c1ccc(-c2nccc(-c3ccc(-n4cnc5ccccc54)cc3)n2)nc1,inactive
4,O=S(=O)(Nc1nc(-c2sccc2Cl)cs1)c1cc(Cl)ccc1Cl,inactive
5,CCOC(=O)CC(=O)CSc1nc2c(C)c(C)ccc2cc1C,inactive
6,CC(OC(=O)c1ccco1)C(=O)NC1CCCCC1 (centres undefined),inactive
7,O=C(c1ccc(Cl)cc1)c1cnc(-c2ccc(Cl)cc2)s1,inactive
8,CC(C)CNc1nnnc2c1sc1nc(N3CCOCC3)c3c(c12)CC(C)(C)SC3,inactive
9,C=CCNC(=S)NNC(=O)c1cccn(Cc2cccc(Cl)c2)c1=O,inactive
10,Cc1cc([N+](=O)[O-])nn1CC(=O)NNC(=S)Nc1ccc([N+](=O)[O-])cc1,inactive
11,Cc1ccc2nc(NC(=O)c3cccc(-c4cc5ccccc5oc4=O)c3)sc2c1,inactive
12,NC(=O)C1CCN(C(c2ccccc2Cl)c2nnnn2CC2CCCO2)CC1 (centres undefined),inactive
13,CC(=O)Nc1cccc(NC(=O)CCn2cnc3cc(C)c(C)cc32)c1,inactive
14,Clc1ccc(C2=Nn3c(nnc3-c3cc(-c4ccccc4)n[nH]3)SC2)cc1,inactive
15,CCOC(=O)c1ccc(NC(=O)CSc2nc(NC(=O)c3ccccc3)c3c(C)c(C)oc3n2)cc1,inactive
16,CNC(=S)NNC(=O)c1cccn(Cc2ccc(Cl)c(Cl)c2)c1=O,inactive
17,O=C(Nc1ccc2oc(-c3ccc4ccccc4c3)nc2c1)c1ccc2c(c1)OCCO2,inactive
18,CCc1nnc(NS(=O)(=O)c2ccc(NC(=S)NC(=O)/C=C/c3ccc(C(C)C)cc3)cc2)s1,inactive
19,C(=C/c1ccnc2nc(SC/C=C/c3ccccc3)nn12)/c1ccccc1,inactive
20,O=C1C2C(C(=O)N1CCc1ccccc1)C1C=CC2C12CC2 (centres undefined),inactive
21,CNC(=S)NNC(=O)c1cccn(Cc2ccc(Cl)cc2Cl)c1=O,inactive
22,O=C(CN(C(=O)CNC(=O)c1ccco1)c1ccc2c(c1)OCO2)NC1CCCCC1,inactive
23,O=C(CCC(=O)OC(C(=O)c1ccccc1)c1ccccc1)Nc1ccccc1 (centres undefined),inactive

row,SMILES,inhibition
1,CCOC(=O)c1cn(-c2nc(-c3ccc(Cl)c(Cl)c3)cs2)c2c(F)c(N3CCOCC3)c(F)cc2c1=O,inactive
2,CCCn1c(Nc2ccc(Cl)cc2)nc2ccccc21,inactive
3,CCOC(=O)c1c2ccc(OCC(=O)N/N=C/c3ccc(C)cc3)cc2n2ccccc12,inactive
4,COc1ccc(C2C(=O)N(C3CCCCC3)CC(=O)N2C2CCCCC2)cc1 (centres undefined),inactive
5,CCCCNS(=O)(=O)c1ccc(NS(=O)(=O)c2c(C)cc(C)cc2C)cc1,inactive
6,CN(C)c1ccc(/C=N/N=C2/NC(=O)/C(=C/c3ccc([N+](=O)[O-])cc3)S2)cc1,inactive
7,O=C(N/N=C/c1cccc([N+](=O)[O-])c1)c1cc2c(ccc3ccccc32)o1,inactive
8,CCN(CC)CCCNC(=O)c1c(O)c2ccccc2n(Cc2ccccc2)c1=O,inactive
9,O=C(NCc1ccco1)c1ccc2nc3sc4c(c3c(=O)n2c1)CCCC4,inactive
10,Brc1ccc2nc(CSc3ncn[nH]3)cn2c1,inactive
11,Cc1nn(-c2ccccc2)c(Cl)c1/C=N/Nc1ccc(S(=O)(=O)Nc2ccccc2C(=O)O)cc1[N+](=O)[O-],inactive
12,Cc1nc(NC(=O)CC(C)C)sc1-c1csc(Nc2ccc(Cl)cc2)n1,inactive
13,Cc1ccc(Nc2cc(C)nn2-c2nc(C)cc(=O)[nH]2)cc1,inactive
14,CCCC(=O)Nc1ccc2c(c1)nc(CCNC(=O)c1ccccc1)n2C,inactive
15,Cc1ccc(-n2nc3c4c(cccc4c2=O)-c2ccccc2-3)cc1,inactive
16,CNC(=S)NNC(=O)c1cccn(Cc2cccc(Cl)c2)c1=O,inactive
17,N#Cc1nc(-c2ccc(OCc3ccc(Cl)cc3)cc2)oc1NCCCn1ccnc1,inactive
18,CCNC(=S)NNC(=O)c1cccn(Cc2ccc(Cl)cc2)c1=O,inactive
19,Clc1ccc(C2=C3CCCCn4c(-c5ccccc5)c[n+](c43)C2)cc1,inactive
20,Cc1ccc(C(=O)NNC(=O)CSc2nnc3c(n2)[nH]c2ccc(F)cc23)cc1,inactive
21,CCCCCCc1cc2cc(-c3nnc(-c4ccccc4OC)o3)c(=O)oc2cc1O,inactive
22,CSc1ccc(/C=N\NC(=O)COc2ccc(Cl)cc2Br)cc1,inactive
23,COc1cc(OC)cc(C(=O)Nc2ccccc2C(=O)N2CCCC2)c1,inactive

row,SMILES,inhibition
1,COCCn1c(Cc2ccccc2)nnc1SCc1nc2ccccc2c(=O)[nH]1,inactive
2,O=C(NNC(=O)c1cc2cc3ccccc3nc2s1)c1cccc(Cl)c1,inactive
3,Cc1nnc(SCC(=O)N/N=C/c2cn(-c3ccccc3)nc2-c2ccccc2)n1-c1ccccc1,inactive
4,CCc1ccc2nc(NC(=O)c3ccc4c(=O)[nH]c(CN5CCOCC5)nc4c3)sc2c1,inactive
5,CCOC(=O)c1c(N2C(=O)Nc3cc(Cl)c(Cl)cc3N2O)sc2c1CCCCC2,inactive
6,Cc1cc(SCC(=O)N/N=C/c2ccc(O)c(O)c2O)c(C)cc1Br,inactive
7,CCn1nc(C(=O)OCC(=O)c2cc(C)n(Cc3cccs3)c2C)c2ccccc2c1=O,inactive
8,Cc1ccc2oc3nc(C)c(C(=O)Nc4cccc(C(F)(F)F)c4)cc3c(=O)c2c1,inactive
9,O=C(N/N=C/c1ccc2ccccc2c1)c1ccc(COc2ccc3c(c2)CCC3)o1,inactive
10,COc1ccc2cc3cc(C(=O)N4CCN(Cc5ccc6c(c5)OCO6)CC4)oc3nc2c1,inactive
11,CN1/C(=C\C=C\C2=[N+](C)c3ccc4ccccc4c3C2(C)C)C(C)(C)c2ccccc21,inactive
12,CN(C)/C=C/C(=O)c1ccc(F)cc1,inactive
13,O=c1c(-c2nnc(SCc3ccc(Cl)cc3Cl)o2)cccn1Cc1ccccc1,inactive
14,O=C(N/N=C/C=C/c1ccccc1)c1cc2c(ccc3ccccc32)o1,inactive
15,COc1c(N2CCN(C(=S)NCc3ccccc3)C(C)C2)c(F)cc2c(=O)c(C(=O)O)cn(C3CC3)c12 (centres undefined),inactive
16,O=C(NC(C(=O)N/N=C/c1ccccc1)c1n[nH]c(=O)c2ccccc12)c1ccccc1 (centres undefined),inactive
17,CCOc1ccc(-c2csc(N)c2C(=O)OC)cc1,inactive
18,CCOC(=O)c1ccc(NC(=O)CC2NCCNC2=O)cc1 (centres undefined),inactive
19,CCOc1ccc(N=C2NC(=O)S/C2=C\c2ccc(Cl)cc2)cc1,inactive
20,O=C(Cc1cnn(-c2ccccc2)c1)c1ccc(O)c(O)c1O,inactive
21,Cc1ccc(C)c(OCC(=O)N/N=C/c2c(C)nn(-c3ccccc3)c2Cl)c1,inactive
